The source of these data is US6528535B2, “Bicyclic inhibitors of protein farnesyl transferase” (Warner-Lambert Company, priority 1997, dated 2003).

Counter-ions that a name gives are not always drawn.

The first assay has as its target T1, SF9 affinity purified rat FPT (Rattus norvegicus, UniProt Q02293+Q04631).
T1 construct: made in house; host or cells: Sf9 insect cells
Put plainly: PFT (farnesyl protein transferase) inhibitory activity, radiolabeled farnesyl pyrophosphate / biotinyl peptide bead assay. Particulars: Examples 56-74, parallel synthesis array: single test; values adjusted to account for the purity of the sample; read-out: FTase, IC50. The class given is biochemical. As for the experimental part: The protein:farnesyl transferase (PFT) or farnesyl protein transferase (FPT) inhibitory activity of compounds of the present invention were assayed in HEPES buffer (pH 7.4) containing 5 mM potassium phosphate and 20 μM ZnCl2. The solution also contained 5 mM DTT (dithiothreitol), 5 mM MgCl2, and 0.1% PEG 8000. Assays were performed in 96 well plates (Wallec) and employed solutions composed of varying concentrations of a compound of the present invention in 10% DMSO (dimethylsulfoxide). Upon addition of both substrates, radiolabeled farnesyl pyrophosphate ([1^3H], specific activity 15-30 Ci/mmol, final concentration 134 nM) and (biotinyl)-Ahe-Thr-Lys-Cys-Val-Ile-Met ([3aS[3a alpha, 4 beta, 6a alpha]-hexahydro-2-oxo-1H-thieno[3,4-d]imidazole-5-pentanoic acid]-[7-aminoheptanoic acid]-Thr-Lys-Cys-Val-Ile-Met) (Ahe is 7-aminoheptanoic acid, Thr is threonine, Lys is lysine, Cys is cysteine, Val is valine, Ile is isoleucine, and Met is methionine) (final concentration 0.2 μM), the enzyme reaction was started by addition of SF9 affinity purified rat FPT. After incubation at 30° C. for 30 minutes, the reaction was terminated by diluting the reaction 2.5-fold with a stop buffer containing 1.5 M magnesium acetate, 0.2 M H3PO4, 0.5% BSA (bovine serum albumin), and strepavidin beads (Amersham) at a concentration of 1.3 mg/mL. After allowing the plate to settle for 30 minutes at room temperature, radioactivity was quantitated on a microbeta counter (Model 1450, Wallec). The assay was also carried out without 5 mM potassium phosphate.
For `CC(C)(C)c1ccc(/C=C2\CCc3cc(OCCn4ccnc4)ccc3C2=O)cc1` [Example 72, 2-(E)-1-[4-(tert-Butyl)phenyl]methylidene-6-[2-(1H-1-imidazolyl)ethoxy]-1,2,3,4-tetrahydro-1-naphthalenone], the IC50 came out at 1200 nM.

As for `COc1cccc(/C=C2\CCc3cc(OCCn4ccnc4)ccc3C2=O)c1` [Example 73, 6-[2-(1H-1-Imidazolyl)ethoxy]-2-[(E)-1-(3-methoxyphenyl)methylidene]-1,2,3,4-tetrahydro-1-naphthalenone], the IC50 came to 1140 nM.

As to `O=C1/C(=C/c2ccccc2C(F)(F)F)CCc2cc(OCCn3ccnc3)ccc21` [Example 67, 6-[2-(1H-1-Imidazolyl)ethoxy]-2-(E)-1-[2-(trifluoromethyl)phenyl]methylidene-1,2,3,4-tetrahydro-1-naphthalenone], the IC50 amounted to 710 nM.

For the compound `COc1ccc(OC)c(/C=C2\CCc3cc(OCCn4ccnc4)ccc3C2=O)c1` [Example 65], the IC50 is 630 nM.

As for `O=C1/C(=C/c2ccc3c(c2)OCO3)CCc2cc(OCCn3ccnc3)ccc21` [Example 59, 2-[(E)-1-(1,3-Benzodioxol-5-yl)methylidene]-6-[2-(1H-1-imidazolyl)ethoxy]-1,2,3,4-tetrahydro-1-naphthalenone], the IC50 worked out at 210 nM.

On to `O=C1/C(=C/c2ccc(Cl)c(Cl)c2)CCc2cc(OCCn3ccnc3)ccc21` [Example 63, 2-[(E)-1-(3,4-Dichlorophenyl)methylidene]-6-[2-(1H-1-imidazolyl)ethoxy]-1,2,3,4-tetrahydro-1-naphthalenone], for which the IC50 is 890 nM.

As for `O=C1/C(=C/c2ccccc2Cl)CCc2cc(OCCn3ccnc3)ccc21` [Example 56, 2-[(E)-1-(2-Chlorophenyl)methylidene]-6-[2-(1H-1-imidazolyl)ethoxy]-1,2,3,4-tetrahydro-1-naphthalenone], the IC50 was 360 nM.

In the case of `O=C1/C(=C/c2ccc(F)cc2)CCc2cc(OCCn3ccnc3)ccc21` [Example 60, 2-[(E)-1-(4-Fluorophenyl)methylidene]-6-[2-(1H-1-imidazolyl)ethoxy]-1,2,3,4-tetrahydro-1-naphthalenone], the IC50 was found to be 180 nM.

Consider `COc1cc(OC)c(/C=C2\CCc3cc(OCCn4ccnc4)ccc3C2=O)c(OC)c1` [Example 68, 6-[2-(1H-1-Imidazolyl)ethoxy]-2-[(E)-1-(2,4,6-trimethoxyphenyl)methylidene]-1,2,3,4-tetrahydro-1-naphthalenone], for which the IC50 came out at 590 nM.

As for `O=C1/C(=C/c2ccc(I)cc2)CCc2cc(OCCn3ccnc3)ccc21` [Example 70, 6-[2-(1H-1-Imidazolyl)ethoxy]-2-[(E)-1-(4-iodophenyl)methylidene]-1,2,3,4-tetrahydro-1-naphthalenone], the 50% inhibitory concentration (IC50) came out at 320 nM.

On to `O=C1/C(=C/c2c(Cl)cccc2Cl)CCc2cc(OCCn3ccnc3)ccc21` [Example 62, 2-[(E)-1-(2,6-Dichlorophenyl)methylidene]-6-[2-(1H-1-imidazolyl)ethoxy]-1,2,3,4-tetrahydro-1-naphthalenone], for which the IC50 is 540 nM.

For `O=C1/C(=C/c2cccc(Cl)c2Cl)CCc2cc(OCCn3ccnc3)ccc21` [Example 61, 2-[(E)-1-(2,3-Dichlorophenyl)methylidene]-6-[2-(1H-1-imidazolyl)ethoxy]-1,2,3,4-tetrahydro-1-naphthalenone], the half-inhibitory concentration (IC50) was 570 nM.

`O=C1/C(=C/c2ccc(Cl)cc2)CCc2cc(OCCn3ccnc3)ccc21` [Example 58, 2-[(E)-1-(4-Chlorophenyl)methylidene]-6-[2-(1H-1-imidazolyl)ethoxy]-1,2,3,4-tetrahydro-1-naphthalenone]: the IC50 is 170 nM.

In the case of `COc1cccc(/C=C2\CCc3cc(OCCn4ccnc4)ccc3C2=O)c1OC` [Example 66, 2-[(E)-1-(2,3-Dimethoxyphenyl)methylidene]-6-[2-(1H-1-imidazolyl)ethoxy]-1,2,3,4-tetrahydro-1-naphthalenone], the IC50 was determined as 1840 nM.

Consider `COc1ccc(/C=C2\CCc3cc(OCCn4ccnc4)ccc3C2=O)c(OC)c1OC` [Example 69, 6-[2-(1H-1-Imidazolyl)ethoxy]-2-[(E)-1-(2,3,4-trimethoxyphenyl)methylidene]-1,2,3,4-tetrahydro-1-naphthalenone], for which the IC50 amounted to 1300 nM.

`O=C1/C(=C/c2cc(Cl)cc(Cl)c2)CCc2cc(OCCn3ccnc3)ccc21` [Example 64, 2-[(E)-1-(3,5-Dichlorophenyl)methylidene]-6-[2-(1H-1-imidazolyl)ethoxy]-1,2,3,4tetrahydro-1-naphthalenone]: the IC50 was 570 nM.

Staying with this assay, now noted: average of two tests unless n is given in parentheses; read-out: FTase, IC50.
In the case of `O=C1CCCc2cc(OCCn3ccnc3)ccc21` [Example 1, 6-(2-Imidazole-1-yl-ethoxy)-3,4-dihydro-2H-naphthalen-1-one], the IC50 was determined as 2000 nM.

Take `CCN(CC)CCOc1ccc(C=C2CCc3cc(OCCn4ccnc4)ccc3C2=O)cc1` [Example 8, 2-[4-(2-Diethylamino-ethoxy)-benzylidene]-6-(2-imidazole-1-yl-ethoxy)-3,4-dihydro-2H-naphthalen-1-one]: the IC50 amounted to 11900 nM.

For the compound `COc1ccccc1C=C1CCc2cc(OCCn3ccnc3)ccc2C1=O` [Example 25, 6-(2-Imidazol-1-yl-ethoxy)-2-(2-methoxy-benzylidene)-3,4-dihydro-2H-naphthalen-1-one], the half-inhibitory concentration (IC50) is 2500 nM.

As to `O=C1/C(=C/C2CCCCC2)CCc2cc(OCCn3ccnc3)ccc21` [Example 45, 2-[(E)-1-Cyclohexylmethylidene]-6-[2-(1H-1-imidazolyl)ethoxy]-1,2,3,4-tetrahydro-1-naphthalenone, hydrochloride], the IC50 worked out at 5800 nM.

As for `O=C1CCCc2cc(OCCc3c[nH]cn3)ccc21` [Example 27, 6-[2-(1H-Imidazole4-yl)-ethoxy]-3,4-dihydro-2H-naphthalen-1-one, monohydrochloride], the IC50 is 1790 nM.

For `O=C(O)c1ccc(C=C2CCc3cc(OCCc4c[nH]cn4)ccc3C2=O)cc1` [Example 35, 4-{6-[2-(1H-Imidazole-4-yl)-ethoxy]-1-oxo-3,4-dihydro-1H-naphthalen-2-ylidenemethyl}-benzoic acid, ditrifluoroacetate], the IC50 stood at 2000 nM.

For the compound `O=C(CON=C1CCCc2cc(OCCn3ccnc3)ccc21)NCC1(c2ccccc2)CCC1` [Example 82, 2-[6-(2-Imidazol-1-yl-ethoxy)-3,4-dihydro-2H-naphthalen-1-ylideneaminooxy]-N-(1-phenyl-cyclobutylmethyl)-acetamide], the IC50 worked out at 420 nM.

Take `Cc1nccn1CCOc1ccc2c(c1)CCCC2=O` [Example 2, 6-[2-(2-Methyl-imidazole-1-yl)-ethoxy]-3,4-dihydro-2H-naphthalen-1-one]: the IC50 was 8400 nM.

Regarding `O=C1CCCc2cc(OC(Cn3ccnc3)c3ccccc3)ccc21` (stereo not drawn) [Example 80, 6-[2-(1H-1-Imidazolyl)-1-phenylethoxy]-1,2,3,4-tetrahydro-1-naphthalenone], the IC50 turned out to be 73 nM.

With `O=C1C(=Cc2ccccn2)CCc2cc(OCCn3ccnc3)ccc21` [Example 3, 6-(2-Imidazole-1-yl-ethoxy)-2-pyridin-2-ylmethylene-3,4-dihydro-2H-naphthalen-1-one], the IC50 stood at 2400 nM.

In the case of `O=C(O)c1ccc(C=C2CCc3cc(OCCc4c[nH]cn4)ccc3C2=O)s1` [Example 38, 5-{6-[2-(1H-Imidazol-4-yl)-ethoxy]-1-oxo-3,4-dihydro-1H-naphthalen-2-ylidenemethyl}-thiophene-2-carboxylic acid], the IC50 was determined as 4300 nM.

Regarding `O=C1C(=Cc2cccs2)CCc2cc(OC(Cn3ccnc3)c3ccccc3)ccc21` (stereo not drawn) [Example 81, 6-(2-Imidazol-1-yl-1-phenyl-ethoxy)-2-thiophen-2-ylmethylene-3,4-dihydro-2H-naphthalen-1-one], the IC50 amounted to 37 nM.

In the case of `CC(=C1CCc2cc(OCCc3c[nH]cn3)ccc2C1=O)c1ccccc1` [Example 40, 6-[2-(1H-Imidazole-4-yl)-ethoxy]-2-(1-phenyl-ethylidene)-3,4-dihydro-2H-naphthalen-1-one], the half-inhibitory concentration (IC50) was 4700 nM.

For `O=C1C(=Cc2ccccc2)CCc2cc(OCCn3ccnc3)ccc21` [Example 9, 2-Benzylidene-6-(2-imidazole-1-yl-ethoxy)-3,4-dihydro-2H-naphthalen-1-one], the IC50 turned out to be 240 nM.

In the case of `O=C1C(=Cc2ccc(Cl)s2)CCc2cc(OCCc3c[nH]cn3)ccc21` [Example 36, 2-(5-Chloro-thiophen-2-ylmethylene)-6-[2-(1H-imidazole-4-yl)-ethoxy]-3,4-dihydro-2H-naphthalen-1-one, hydrochloride], the IC50 was 3500 nM.

On to `NC(=O)c1ccc(C=C2CCc3cc(OCCc4c[nH]cn4)ccc3C2=O)cc1` [Example 33, 4-{6-[2-(1H-Imidazole-4-yl)-ethoxy]-1-oxo-3,4-dihydro-1H-naphthalen-2-ylidenemethyl}-benzamide, monohydrochloride], for which the IC50 came out at 7300 nM.

For `O=C1/C(=C/c2cccs2)COc2cc(OCCn3ccnc3)ccc21` [Example 52, 7-[2-(1H-1-Imidazolyl)ethoxy]-3-[(E)-1-(2-thienyl)methylidene]4-chromanone], the IC50 is 220 nM.
